SMILES strings stand for the structures. Peptide text beside a SMILES is read from it. * marks the point of attachment. DOTA = O=C(O)CN1CCN(CC(=O)O)CCN(CC(=O)*)CCN(CC(=O)O)CC1; Ahx = NCCCCCC(=O)O Where only a bound is given, the exact number is not on record here.

One data set relates to MC38. In words: Biodistribution and PET/CT in mice bearing MC38 tumors treated with vehicle or CPI. Format: in vivo, mouse. The conditions noted are these: MC38 cohort, biodistribution. As to the method: (§1) Next, the biodistribution of ^64Cu-GRIP B and ^64Cu-D-GRIP B was compared in mice bearing MC38 (mouse colorectal cancer) or EMT6 (mouse mammary breast carcinoma) xenografts. The mice were treated with vehicle or anti-PD1 and anti-CTLA4 CPIs following the schema used for the CT26 cohort.

For data set [1], the system named is E. coli. As to the kind of experiment: PET/CT and biodistribution in E. coli myositis in germline GZMB knockout mice. It is filed as in vivo, mouse. As to the method:
To confirm the radiotracer uptake in the abscess was due to granzyme B, imaging studies were performed in germline GZMB knockout mice. The mice received live and heat killed E. Coli and were injected and imaged following the same protocol for wild type mice.

Another data set has as its target recombinant human GZMB (Homo sapiens, UniProt P10144). As to the kind of experiment: Cleavage of GRIP B / ^64Cu-GRIP B by recombinant human GZMB (rad-HPLC). The note with it: incubation with recombinant human GZMB (400 nM per FIG. 2D legend); product comigrated with cold cleaved DOTA-peptide fragment. Format: biochemical.
For a further data set, the system named is RAJI tumors. In words: PET/CT in mice bearing RAJI xenografts given anti-CD19 CAR T cells. It is filed as in vivo, mouse. As to the method:
Mice bearing subcutaneous RAJI xenografts and administered anti-CD19 CAR T cells were imaged using ^64Cu-GRIP B PET/CT. Peripheral blood mononuclear cells were obtained from normal blood donor leukoreduction filters (Vitalant Blood Services). CD4+ and CD8+ T-cells were isolated via magnetic bead selection, activated with anti-CD3/CD28 beads, lentivirally transduced with a validated anti-CD19 CAR construct, and expanded in vitro with IL-2. In parallel, mice were injected with 1e6 Raji cells subcutaneously in the right flank. At tumor size of ˜400 mm3 5e6 CAR-expressing T-cells were implanted IV into each mouse. Mice received anti-CD19 CAR T cells or empty CAR Ts. After 6 days, the mice received ^64Cu-GRIP B (˜300 uCi/mouse) and were imaged from 0-4 hours post injection. The data depicted in FIG. 7 show images and region of interest analysis gathered at 4 hours post injection.
Additionally, mice bearing orthotopic RAJI xenografts and treated with activated CAR T cell based therapy were imaged using ^64Cu-GRIP B PET/CT. Raji cells (1e5) were administered orthotopically via tail vein injection to encourage seeding in abdominal tissues. This model was evaluated as subcutaneous Raji tumors are known to be intrinsically immunosuppressive.
Peripheral blood mononuclear cells were obtained from normal blood donor leukoreduction filters (Vitalant Blood Services). […]

A further data set concerns EMT6. In words: Biodistribution in mice bearing EMT6 tumors treated with vehicle or CPI. The note with it: EMT6 cohort. It is filed as in vivo, mouse. As to the method:
as §1

A further data set relates to virus. In words: PET and biodistribution in viral pneumonia model. The note with it: biodistribution; including spleen, liver and blood pool.
Data set [2] has as its system E. coli. In words: PET in E. coli myositis model (live vs heat killed, vs LPS). Format: in vivo, mouse. As to the method: ^64Cu-GRIP B was also tested to determine whether it can detect granzyme B secreted from activated immune cells attempting to combat bacterial infections. A cohort of mice bearing bilateral deltoid implants of live E. coli or heat killed E. coli was established to test the kinetics of tracer uptake (FIG. 10).
Next, the granzyme B responses to live E. coli versus treatment with a bolus of the endotoxin LPS were compared. Three to four hours after implantation, mice received ^64Cu-GRIP B and were imaged serially (FIG. 12).

In a further data set the test system is M. marinum. In words: PET in M. marinum myositis model. Format: in vivo, mouse. An excerpt:
Neither M. marinum nor the L. monoctyogenes induced ^64Cu-GRIP B uptake in live bacterial abscesses compared to heat killed controls.

Chain of recombinant human GZMB (P10144 21-247): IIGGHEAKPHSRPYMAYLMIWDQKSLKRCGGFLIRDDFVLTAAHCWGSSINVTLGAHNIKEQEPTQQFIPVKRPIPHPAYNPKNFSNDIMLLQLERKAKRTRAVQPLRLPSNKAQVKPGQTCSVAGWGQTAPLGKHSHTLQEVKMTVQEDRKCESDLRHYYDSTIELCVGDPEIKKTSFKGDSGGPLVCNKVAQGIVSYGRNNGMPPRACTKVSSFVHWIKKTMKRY
From the text for virus: In collaboration with the Looney lab at UCSF, mice received an intranasal instillation of virus or sham, and were imaged with ^64Cu-GRIP B at 10 days post infection (the time point at which peak recruitment of T cells to the lungs occurs).

On to `CC[C@H](C)[C@H](NC(=O)[C@H](CCCCN)NC(=O)CNC(=O)[C@H](CC(C)C)NC(=O)[C@H](Cc1ccccc1)NC(=O)[C@H](CCCCN)NC(=O)[C@H](CO)NC(=O)[C@H](Cc1ccccc1)NC(=O)[C@H](Cc1c[nH]c2ccccc12)NC(=O)[C@H](CCC(N)=O)NC(=O)[C@@H](NC(=O)[C@H](Cc1ccccc1)NC(=O)CCCCCNC(=O)CN1CCN(CC(=O)O)CCN(CC(=O)O)CCN(CC(=O)O)CC1)C(C)C)C(=O)N[C@@H](CCC(=O)O)C(=O)N1CCC[C@H]1C(=O)N[C@@H](CC(=O)O)C(=O)N[C@H](C(=O)N[C@@H](CO)C(=O)N[C@@H](CCC(N)=O)C(=O)N[C@H](C(=O)N[C@@H](CCC(N)=O)C(=O)N[C@@H](CC(=O)O)C(=O)N1CCC[C@H]1C(=O)N[C@@H](CC(N)=O)C(=O)N[C@@H](CC(=O)O)C(=O)N[C@@H](CCC(N)=O)C(=O)N[C@@H](Cc1ccc(O)cc1)C(=O)N[C@@H](CCC(=O)O)C(=O)N1CCC[C@H]1C(=O)N[C@@H](Cc1ccccc1)C(=O)O)C(C)C)C(C)C` [^64Cu-GRIP B, metal not drawn] ({DOTA-Ahx}-FVQWFSKFLGKIEPDVSQVQDPNDQYEPF-OH), for which the “tumoral uptake after CPI compared to controls” value with MC38 is reported as “significant increase”. In addition, the “uptake in infected muscle, GZMB knockout compared to wild type” value in the data set on E. coli [1] (PET/CT and biodistribution) was “lower”. In addition, the “difference in tracer uptake between normal muscle, live and heat killed E. Coli treated muscle” value in the data set on E. coli [1] (knockout strain) is listed as “negligible difference”. The “time to conversion to one radiolabeled product” value with recombinant human GZMB is no more than 30 min. Moreover, the “uptake in tumor bearing livers” value in the data set on RAJI tumors (orthotopic RAJI tumors in liver, CD19 CAR Ts, ROI and post mortem dosimetry) is reported as “induce ^64Cu-GRIP B uptake in tumor bearing livers”. For the same molecule, the “detection of granzyme B production from activated CAR T cells” value in the data set on RAJI tumors (subcutaneous and orthotopic RAJI, anti-CD19 CAR T vs empty CAR Ts, 4 hours post injection) is “can detect granzyme B production from activated CAR T cells”. In addition, in the data set on EMT6, the “tumoral uptake after CPI compared to controls” value was “significant increase”. Also, the “relative radiotracer uptake per organ, viral infection” value in the data set on virus was “higher radiotracer uptake in numerous tissues”. The “uptake in live abscess compared to site of heat killed bacterial implantation” value in the data set on E. coli [2] (E. coli, bilateral deltoid implants) is on record as “significantly higher”. Also, in the data set with E. coli [2] (live E. coli deltoid implant), the “time course of tracer uptake in the myositis lesion” value is “increased out to 5 hours and persisted to at least 24 hours post injection”. Also, in the data set on E. coli [2] (tracer three to four hours after implantation, serial imaging), the “radiotracer uptake, live E. coli abscess versus bolus of LPS” value was “differences in radiotracer uptake were detected from 6-24 hours post injection”. In addition, the normal tissue biodistribution entry (biodistribution out to 24 hours post injection) was “highest level of tissue-associated activity in the kidney and liver”. For the same molecule, the “dominant mode of clearance” value (intravenous, C57B16/J mice, dynamic PET) is listed as “renal”. In addition, in the data set with M. marinum, the “radiotracer uptake compared to normal muscle” value was “significant increase” and the “uptake in live bacterial abscesses compared to heat killed controls” value is on record as “did not impact”.

The record behind these values is US20240238459A1, “Granzyme-Activatable Membrane-Interacting Peptides and Methods of Use” (priority 2021, published 2024).
